Patent publication US10975123B2, “Mutant Akt-specific capture agents, compositions, and methods of using and making” (California Institute of Technology, priority 2014, dated 2021)
Entries after “also recorded” stand apart in the source; their conditions may differ. Where a SMILES comes first, the peptide text is derived from it. Bridges are numbered along the chain shown (N, C = ends). Roman numbers before positions name the chains, in order. Triazole bridges read from a SMILES are 1,4-linked. Where no end group is shown, it is not given here. [ ]: non-standard residue; d: D form. The star is where a group is joined. Biotin = O=C1N[C@H]2[C@H](CS[C@H]2CCCCC(=O)*)N1; Lys(N3) = [N-]=[N+]=NCCCC[C@H](N)C(=O)O; PEG6 = NCCOCCOCCOCCOCCOCCOCCC(=O)O; dPra = C#CC[C@@H](N)C(=O)O

Tests used:
[1] = target: T1, E17K GST-PH Domain (E17K Akt1) (Homo sapiens, UniProt P31749, E17K); assay: Full curve ELISA, immobilized ligand, E17K protein; assay type: binding; settings: in words
T1 construct: The first 124 N-terminal amino acids from full length Akt1 were used as the PH Domain DNA; GST (N); thrombin cleavage site (C); 6His (C); made in house; host or cells: E. coli BL21-DE3-pLys
Experimental: The full curve ELISAs were obtained using streptavidin coated ELISA plates (Pierce). The ligands—anchor, biligand, triligand and “eflya” scrambled anchor peptide blank—were laid down at a concentration of 1 μM for one hour. Two lanes of each ligand were used on the plate for both proteins—WT and E17K GST-PH Domain. The plates were blocked with 5% BSA for two hours. Dilutions of both WT and E17K GST-PH Domain proteins were made in 0.5% BSA in 1×TBS starting from 1 μM-0.5 nM by serially diluting 1:2 down a series of 8 samples. For each ligand, a no protein blank was also used. The proteins were incubated with the blocked plate for one hour, washed 3× with 1×TBST+0.5% BSA and tapped dry, then detected with a 1:10,000 dilution of an HRP conjugated anti-GST pAb. The plate was again washed 3× with 1×TBST and tapped dry. It was developed with a 1:1 solution of TMB substrate and development was stopped with 1M H2SO4 and read on a plate reader.

[2] = target: T2, WT GST-PH Domain (Akt1) (Homo sapiens, UniProt P31749); assay: Full curve ELISA, immobilized ligand, WT protein; assay type: binding; settings: in words
T2 construct: The first 124 N-terminal amino acids from full length Akt1 were used as the PH Domain DNA; GST (N); thrombin cleavage site (C); 6His (C); made in house; host or cells: E. coli BL21-DE3-pLys
Experimental: The full curve ELISAs were obtained using streptavidin coated ELISA plates (Pierce). The ligands—anchor, biligand, triligand and “eflya” scrambled anchor peptide blank—were laid down at a concentration of 1 μM for one hour. Two lanes of each ligand were used on the plate for both proteins—WT and E17K GST-PH Domain. The plates were blocked with 5% BSA for two hours. Dilutions of both WT and E17K GST-PH Domain proteins were made in 0.5% BSA in 1×TBS starting from 1 μM-0.5 nM by serially diluting 1:2 down a series of 8 samples. For each ligand, a no protein blank was also used. The proteins were incubated with the blocked plate for one hour, washed 3× with 1×TBST+0.5% BSA and tapped dry, then detected with a 1:10,000 dilution of an HRP conjugated anti-GST pAb. The plate was again washed 3× with 1×TBST and tapped dry. It was developed with a 1:1 solution of TMB substrate and development was stopped with 1M H2SO4 and read on a plate reader. The curves in FIG. 4B were plotted by normalizing the signal by the blank wells, and were fitted to a Hill function in GraphPad using a common saturation and slope (Bmax=1.466+/−0.03, h=0.7383+/−0.025).

[3] = target: T3, E17K PH Domain binding to PIP3 (Homo sapiens, UniProt P31749, E17K); assay: PIP3 agarose inhibition assay, E17K; assay type: biochemical; settings: ligand 2.38 μM (10x protein), protein 234 nM, western blot, in words
T3 construct: 2 μg of either wildtype or mutant PH Domain-GFP protein (234 nM); made in house; host or cells: HEK-293-6E (used as cell lysate, not purified)
From the text: The yleaf ligand, the biligand, and the triligand were all tested for their ability to block the E17K PHD binding with PIP3. For this test, PIP3-coated resin (Echelon Biosciences) was used to mimic the PHD interaction with the cell membrane, and could be used to bind the protein as in an immunoprecipitation assay^22. The presence of an effective blocking compound would reduce the ability of the resin to capture the protein, and would thus appear as a diminished signal in the corresponding western blot assay. A control lane containing no capture agent was used to show baseline binding of the protein to the PIP3 resin. […] In an expanded study, we compared the amount of E17K and WT PH domain binding relative to the amount of added triligand (FIG. 5e).
PIP3 Agarose beads (Echelon) were used to detect for the inhibition of PH Domain binding to its substrate, PIP3, upon incubation with the anchor candidate peptide ligands. To test the inhibition of each of the ligands, anchor biligand and triligand, 20 μL of resin slurry was added to each of four tubes and washed three times with 1×TBS. Protein, 2 μg (234 nM) of E17K mutant, was preincubated for one hour at room temperature with either DMSO (no protein blank), anchor, biligand or triligand at 2.38 μM (10× in relation to protein) in 200 μL of 1×TBS. For the control, mutant PH Domain was incubated with 1×TBS and 1 μL […] to mimic the ligand conditions. These protein samples were then added to PIP3 agarose in a Spin-X tube and incubated at room temperature for two hours. The resin was washed three times with 1×TBS with 0.25% IGEPAL CA-630, spun out to dry completely, then denatured with 50 μL 3×SDS gel loading buffer for 10 min at 95° C. The gel loading buffer was spun out of the resin and detected via western blot as per the Streptavidin-Agarose Pulldowns. Inhibition was indicated by a decrease in the amount of PH Domain that was pulled down by the resin.
Expanded inhibition blots with either WT of E17K mutant protein were performed in a similar fashion. Twelve tubes of 20 μL of PIP3 agarose were washed three times with 1×TBS. 2 μg of either wildtype or mutant PH Domain-GFP protein (234 nM) in 200 uL 1×TBS were preincubated for 30 minutes with differing concentrations of triligand: 0.1 eq (23.4 nM), 1 eq (234 nM), 10 eq (2.34 μM), 100 eq (23.4 μM), and 1000 eq (234 μM). The protein and triligand solutions were then incubated with the PIP3 resin for 2 hours at room temperature. The resins were washed, eluted, and blotted as per all PH Domain western blots.

[4] = target: T4, E17K mutant PH Domain (PHD) of Akt1 (Homo sapiens, UniProt P31749, E17K); assay: Streptavidin-agarose immunoprecipitation (pulldown), E17K; assay type: binding; settings: in words
T4 construct: The first 124 N-terminal amino acids from full length Akt1 were used as the PH Domain DNA; made in house; host or cells: E. coli
Experimental: (§1) Four biligand candidates were chosen based on their hydrophobicity and sequence homology using principal component analysis (FIG. 25). Biligands were synthesized by coupling the 2° ligand onto Rink Amide Resin on the Titan peptide synthesizer. The amide group on the end of the Lys(N3) was capped by shaking the resin with 2 mL acetic anhydride, 2 mL NMP and 0.5 mL DIEA for 3×10 minutes, then washed with NMP. FMOC-Propargylglycine-Otbu (Pra) was clicked onto the Lys(N3) on the 2° ligand by incubating 2 eq of the Pra amino acid with 2 eq CuI and 2 eq ascorbic acid with 1 eq azide on resin in 20% piperidine/NMP for 3 hours. The resin was washed 5×4 mL with a chelating solution of 1 g sodium diethyldithiocarbamate in 20 mL NMP and 1 mL DIEA. The anchor was then built onto the 2° ligand on bead, and an N-terminal PEG5-biotin tag were added. Assays were performed exactly as for the anchor ligands, except for two key differences. The biligand assays were done with 6 ug of GST-tagged PHD protein, instead of the untagged PHD that was used in the anchor pulldowns. The pull-downs were also conducted out of 1% serum in 1×TBS, as opposed to just 1×TBS.
(§2) Pulldown assays were done on Streptavidin Agarose resin from Invitrogen. The resin was incubated with N-terminal biotinylated anchor peptide candidates identified via the ClusterLigand sequence analysis. The anchor candidate coated beads were then incubated with either the wildtype or mutant protein to compare the selectivity of the ligands, as well as the binding ability. The bound protein was eluted and western blotted to compare the amount of protein present for each sample.
(§3) Relative protein band sizes were analyzed to compare binding between the anchor candidates and were used to determine selectivity for either wildtype or mutant PH Domain (FIG. 11). […] Both of these ligands look fairly selective for their respective PH Domain.

[5] = target: T5, wildtype PH Domain (PHD) of Akt1 (Homo sapiens, UniProt P31749); assay: Streptavidin-agarose immunoprecipitation (pulldown), WT; assay type: binding; settings: in words
T5 construct: The first 124 N-terminal amino acids from full length Akt1 were used as the PH Domain DNA; made in house; host or cells: E. coli
Experimental: as §1, §2, §3

[6] = target: T6, E17K 33-mer fragment (6His-tagged) (Homo sapiens, UniProt P31749, E17K/H13K); assay: HPLC-detected immunoprecipitation (pulldown), E17K 33-mer; assay type: binding; settings: 50 μM epitope, overnight 4° C., guanidine elution, in words
T6 construct: made in house; host or cells: chemical synthesis (Fmoc SPPS)
T6 sequence (P31749 1-33 H13K/E17K limits assumed): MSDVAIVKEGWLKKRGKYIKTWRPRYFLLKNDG
From the text: The label-modified yleaf (SEQ ID NO: 43) peptide (FIG. 2a and FIG. 12) was subjected to a variety of binding assays against the synthesized WT and E17K 33-mer PHD fragments prepared without the biotin label and alkyne click handle. First, the yleaf (SEQ ID NO: 43) peptide was used in immunoprecipitation assays to pull-down either the WT or E17K mutant 6His-tagged (SEQ ID NO: 4) 33-mer peptide fragments (FIGS. 13 and 14), as opposed to the full-length proteins that were used to initially validate the candidates. Typical immunoprecipitation assays involve western blotting to estimate the amount of protein binding, but 33-mer peptide fragments are not easily quantified on a blot. Because of this, the amount of peptide epitope precipitated in these assays was quantified via injection on an analytical HPLC. These assays further confirmed preferential yleaf (SEQ ID NO: 43) ligand binding to the E17K 33-mer epitope relative to the WT epitope (FIG. 15).
Pulldown assays with the biotinylated anchor and his-tagged 33-mer epitope were performed to verify epitope targeting. […] Because small peptide fragments like the 33-mer epitope are difficult to transfer to and detect on the nitrocellulose membrane as for a traditional Western blot, the amount of binding in these assays was detected via HPLC. […]

[7] = 6 ug GST-tagged PHD, 1% serum in 1xTBS, western blot, listed as yleaf-yksy
[8] = streptavidin agarose, 1xTBS, western blot band size

T5 sequence (P31749 1-124): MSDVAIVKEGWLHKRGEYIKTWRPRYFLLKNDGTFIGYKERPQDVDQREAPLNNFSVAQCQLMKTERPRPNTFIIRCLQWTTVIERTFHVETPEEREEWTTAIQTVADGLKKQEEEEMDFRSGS
T4 sequence (P31749 1-124 E17K): as the sequence (P31749 1-124) above, with E17K counted along it
T2 sequence (P31749 1-124): as the sequence (P31749 1-124) above
T1 sequence (P31749 1-124 E17K): as the sequence (P31749 1-124) above, with E17K counted along it
T3 sequence (P31749 5-108 E17K limits assumed): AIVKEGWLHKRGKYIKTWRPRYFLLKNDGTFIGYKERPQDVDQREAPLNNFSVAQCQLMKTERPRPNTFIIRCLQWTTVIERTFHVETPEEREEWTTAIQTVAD

amount of E17K 33-mer fragment pulled down (HPLC peak) [6]	Compound	change in binding affinity for the E17K protein versus the preceding ligand (ELISA) [1]	change in binding affinity for the WT protein versus the preceding ligand (ELISA) [2]	inhibition of E17K PH Domain binding to PIP3-coated resin [3]	inhibition of E17K PH Domain binding to PIP3-coated resin ([3]; listed as biligand 7)	pulldown of E17K GST-PHD by biligand candidates [4, 7]	pulldown of WT GST-PHD by biligand candidates [5, 7]	pulldown of E17K mutant PH Domain by biotinylated anchor candidates [4, 8]	pulldown of wildtype PH Domain by biotinylated anchor candidates [5, 8]
–	CC(=O)N[C@@H](CCCCn1cc(C[C@@H](NC(=O)[C@@H](Cc2ccccc2)NC(=O)[C@@H](C)NC(=O)[C@@H](CCC(=O)O)NC(=O)[C@@H](CC(C)C)NC(=O)[C@@H](Cc2ccc(O)cc2)NC(=O)CCOCCOCCOCCOCCOCCOCCNC(=O)CCCC[C@@H]2SC[C@@H]3NC(=O)N[C@@H]32)C(=O)O)nn1)C(=O)N[C@H](Cc1ccc(O)cc1)C(=O)N[C@H](CCCCN)C(=O)N[C@H](CO)C(=O)N[C@H](Cc1ccc(O)cc1)C(N)=O [biligand] (I: {Biotin-PEG6}-[dY][dL][dE][dA][dF][dPra]-OH / II: Ac-[Lys(N3)][dY][dK][dS][dY]-NH2; triazole I:6-II:1)	an increase in affinity for the E17K mutant protein	an even larger increase in affinity for the WT protein	exhibited the ability to block the PHD-PIP3 interaction	decreased binding of the protein	the greatest signal in binding the E17K protein; also recorded: the highest signal for the E17K protein	the lowest in binding the WT protein; also recorded: the lowest off-target signal to the WT protein	–	–
much less pull down than the yleaf	eefef ([dE][dE][dF][dE][dF]) [off-target control]	–	–	–	–	–	–	the least pulldown for the mutant protein	the only pulldown of the wildtype protein
–	iryrn: triligand candidate: biligand yleaf-yksy with tertiary ligand iryrn (SEQ ID NO: 92) (IRYRN)	a significant improvement on the binding affinity for the E17K protein	an even bigger increase for the WT protein	–	–	–	–	–	–
